System: BMP signal in MDA-231-D-BREFluc/Rluc cells
Assay: BMP signal inhibitory effect (AlphaScreen SureFire SMAD1 p-Ser463/465, BMP-6 stimulation)
Type: cell-based
Conditions: BMP-6 stimulated MDA-231-D-BREFluc/Rluc cells, phospho-SMAD1 AlphaScreen; read-out: IC50
Description: BMP Signal Inhibitory Effect
A BMP signal inhibitory activity of a compound of the present invention was evaluated according to the following method.
MDA-231-D-BREFluc/Rluc cells prepared according to the method described in Y. Katsuno et al., Oncogene, 27, 6322 (2008) were incubated at 37° C. for 2 hours together with test compounds, and BMP-6 (commercially available from R&D System, 507-BM-020) was then added thereto, and the mixture was additionally incubated at 37° C. for 30 minutes. A Lysis Buffer and Acceptor mix of AlphaScreen SureFire SMAD1 (p-Ser463/465) assay kit (commercially available from Perkin Elmer, TGRSM1S10K) were sequentially added thereto, the mixture was incubated at room temperature for 2 hours, and AlphaScreen Protein A kit (commercially available from Perkin Elmer, 6760617) was then added thereto, and standard AlphaScreen settings of Alpha Technology—compatible plate reader (commercially available from Perkin Elmer, EnSpire) was used for measurement.

Structure (SMILES)	IC50
CCn1cc(-c2ccnc(Nc3ccc(C(C)=O)cc3)n2)c(-c2cccnc2)n1 [Example 6, 1-(4-((4-(1-Ethyl-3-(pyridin-3-yl)-1H-pyrazol-4-yl)pyrimidin-2-yl)amino)phenyl) ethan-1-one]	29.2 nM
CCn1cc(-c2ccnc(Nc3cnn(C4CCOCC4)c3)n2)c(-c2cccnc2)n1 [Example 53, 4-(1-ethyl-3-(pyridin-3-yl)-1H-pyrazol-4-yl)-N-(1-(tetrahydro-2H-pyran-4-yl)-1H-pyrazol-4-yl)pyrimidin-2-amine]	22 nM
CCn1cc(-c2ccnc(Nc3ccc4c(c3)CCN(CC(N)=O)C4)n2)c(-c2cccnc2)n1 [Example 90, 2-(6-((4-(1-Ethyl-3-(pyridin-3-yl)-1H-pyrazol-4-yl)pyrimidin-2-yl)amino)-3,4-dihydroisoquinolin-2(1H)-yl)acetamide]	21.6 nM
CCn1cc(-c2ccnc(Nc3ccc(C(=O)N(C)C4CCN(C)CC4)cc3)n2)c(-c2cccnc2)n1 [Example 4, 4-((4-(1-ethyl-3-(pyridin-3-yl)-1H-pyrazol-4-yl)pyrimidin-2-yl)amino)-N-methyl-N-(1-methylpiperidin-4-yl)benzamide]	16.3 nM
COCCN1CCN(c2ccc(Nc3nccc(-c4cn(CC(C)(C)O)nc4-c4cccnc4)n3)cc2)CC1 [Example 81, 1-(4-(2-((4-(4-(2-Methoxyethyl)piperazin-1-yl)phenyl)amino)pyrimidin-4-yl)-3-(pyridin-3-yl)-1H-pyrazol-1-yl)-2-methylpropan-2-ol]	21 nM
N#Cc1ccccc1Cn1cc(-c2ccnc(Nc3ccc(N4CCNCC4)cc3)n2)c(-c2cccnc2)n1 [Example 157, 2-((4-(2-((4-(Piperazin-1-yl)phenyl)amino)pyrimidin-4-yl)-3-(pyridin-3-yl)-1H-pyrazol-1-yl)methyl)benzonitrile]	19.7 nM

More lines, now with the values ahead:

IC50	Structure (SMILES)
5.3 nM	CCn1cc(-c2ccnc(Nc3cccc(OCCN(C)C)c3)n2)c(-c2cccnc2)n1 [Example 24, N-(3-(2-(dimethylamino)ethoxy)phenyl)-4-(1-ethyl-3-(pyridin-3-yl)-1H-pyrazol-4-yl)pyrimidin-2-amine]
6.9 nM	CCn1cc(-c2ccnc(Nc3ccc(C(=O)N4CCN(C(C)(C)C)CC4)cc3)n2)c(-c2cccnc2)n1 [Example 1, (4-(tert-butyl)piperazin-1-yl)(4-((4-(1-ethyl-3-(pyridin-3-yl)-1H-pyrazol-4-yl)pyrimidin-2-yl)amino)phenyl)methanone]
5 nM	CCn1cc(-c2ccnc(Nc3cccc(CN(C)C)c3)n2)c(-c2cccnc2)n1 [Example 40, N-(3-((dimethylamino)methyl)phenyl)-4-(1-ethyl-3-(pyridin-3-yl)-1H-pyrazol-4-yl)pyrimidin-2-amine]
11.8 nM	CCn1cc(-c2ccnc(Nc3ccc(N4CCC(N5CCN(C)CC5)CC4)cc3)n2)c(-c2cccnc2)n1 [Example 20]
15.2 nM	CCn1cc(-c2ccnc(Nc3ccc(N4CCN(CC5CCOC5)CC4)cc3)n2)c(-c2cccnc2)n1 (centres unmarked) [Example 97, 4-(1-Ethyl-3-(pyridin-3-yl)-1H-pyrazol-4-yl)-N-(4-(4-((tetrahydrofuran-3-yl)methyl)piperazin-1-yl)phenyl)pyrimidin-2-amine]
13.3 nM	FC(F)(F)Cn1cc(-c2ccnc(Nc3ccc(N4CCNCC4)cc3)n2)c(-c2cccnc2)n1 [Example 136, N-(4-(piperazin-1-yl)phenyl)-4-(3-(pyridin-3-yl)-1-(2,2,2-trifluoroethyl)-1H-pyrazol-4-yl)pyrimidin-2-amine]
10 nM	CCn1cc(-c2ccnc(Nc3ccc4c(c3)CCN(C3COC3)CC4)n2)c(-c2cccnc2)n1 [Example 125, N-(4-(1-Ethyl-3-(pyridin-3-yl)-1H-pyrazol-4-yl)pyrimidin-2-yl)-3-(oxetan-3-yl)-2,3,4,5-tetrahydro-1H-benzo [d] azepin-7-amine]
15.9 nM	COCCn1cc(-c2ccnc(Nc3ccc(N4CCN(CC5CC5)CC4)cc3)n2)c(-c2cccnc2)n1 [Example 36, N-(4-(4-(Cyclopropylmethyl)piperazin-1-yl)phenyl)-4-(1-(2-methoxyethyl)-3-(pyridin-3-yl)-1H-pyrazole-4-yl)pyrimidin-2-amine]

From patent publication US10954216B2, “BMP-signal-inhibiting compound” (RIKEN, priority 2016, dated 2021)
